ChEMBL document CHEMBL4145608, “Dehydrodiconiferyl Alcohol Inhibits Osteoclast Differentiation and Ovariectomy-Induced Bone Loss through Acting as an Estrogen Receptor Agonist” (J Nat Prod, 2018)
Active and inactive are the calls of the source. The calls are words filed in the database; no cut-off is given here.

Assays:
RAW264.7 [1] = experiment: Inhibition of RANKL-induced osteoclast differentiation in mouse RAW264.7 cells harboring ERbeta siRNA assessed as decrease in c-Fos mRNA level at 20 uM after 24 hrs by qRT-PCR method; format: functional, cell-based
RAW264.7 [2] = experiment: Inhibition of RANKL-induced osteoclast differentiation in mouse RAW264.7 cells assessed as TRAP activity after 5 days in presence of PKA inhibitor H89; format: functional, cell-based
Mus musculus [3] = experiment: Anti-osteoporotic activity in Balb/c mouse assessed as inhibition of OVX-induced NFATc1 mRNA expression level in bone marrow at 25 to 100 mg/kg, ip administered for 4 weeks daily by qRT-PCR method; format: functional, organism-based
RAW264.7 [4] = experiment: Inhibition of RANKL-induced osteoclast differentiation in mouse RAW264.7 cells assessed as decrease in TRAP activity at 20 uM after 5 days in presence of ERalpha antagonist MPP by microscopy; format: functional, cell-based
RAW264.7 [5] = experiment: Inhibition of NF-kappaB/p38 MAPK signaling pathway in mouse RAW264.7 cells assessed as reduction in RANKL-induced MMP-9 mRNA level after 24 hrs by qRT-PCR method; format: cell-based
Mus musculus [6] = experiment: Anti-osteoporotic activity in Balb/c mouse assessed as decrease in OVX-induced trabecular bone surface in femur at 25 to 100 mg/kg, ip administered for 4 weeks daily by microcomputed tomography; format: functional, organism-based
RAW264.7 [7] = experiment: Inhibition of RANKL-induced osteoclast differentiation in mouse RAW264.7 cells assessed as TRAP activity after 5 days in presence of estrogen receptor antagonist fulvestrant; format: functional, cell-based
RAW264.7 [8] = experiment: Inhibition of RANKL-induced osteoclast differentiation in mouse RAW264.7 cells harboring ERalpha siRNA assessed as decrease in c-Fos mRNA level at 20 uM after 24 hrs by qRT-PCR method; format: functional, cell-based
RAW264.7 [9] = experiment: Inhibition of RANKL-induced osteoclast differentiation in mouse RAW264.7 cells assessed as decrease in TRAP activity at 10 to 40 uM after 5 days by microscopy; format: functional, cell-based
Mus musculus [10] = experiment: Anti-osteoporotic activity in Balb/c mouse assessed as inhibition of OVX-induced TRAP mRNA expression level in bone marrow at 25 to 100 mg/kg, ip administered for 4 weeks daily by qRT-PCR method; format: functional, organism-based
[11] = target: T1, Estrogen receptor (Homo sapiens) (UniProt P03372); experiment: Agonist activity at estrogen receptor (unknown origin) expressed in mouse RAW264.7 cells after 6 hrs by luciferase reporter gene assay; format: cell-based
T1 sequence (whole entry): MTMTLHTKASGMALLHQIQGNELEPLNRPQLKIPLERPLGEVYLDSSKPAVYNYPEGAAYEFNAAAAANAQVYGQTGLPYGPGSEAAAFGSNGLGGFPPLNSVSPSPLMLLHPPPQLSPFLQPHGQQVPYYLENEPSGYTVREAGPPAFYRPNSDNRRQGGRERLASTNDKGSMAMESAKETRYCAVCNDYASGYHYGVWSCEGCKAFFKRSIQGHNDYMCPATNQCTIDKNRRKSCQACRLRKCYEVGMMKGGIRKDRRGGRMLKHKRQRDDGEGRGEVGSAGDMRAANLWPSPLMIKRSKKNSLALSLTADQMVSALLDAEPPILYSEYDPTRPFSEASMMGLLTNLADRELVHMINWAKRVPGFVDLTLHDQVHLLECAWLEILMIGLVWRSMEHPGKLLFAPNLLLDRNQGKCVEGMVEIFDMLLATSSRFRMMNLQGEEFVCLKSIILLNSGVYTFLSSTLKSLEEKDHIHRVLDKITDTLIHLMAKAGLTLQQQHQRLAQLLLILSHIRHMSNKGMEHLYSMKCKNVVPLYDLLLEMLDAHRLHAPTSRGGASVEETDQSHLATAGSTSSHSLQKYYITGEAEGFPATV

Mus musculus [12] = experiment: Anti-osteoporotic activity in Balb/c mouse assessed as inhibition of OVX-mediated decrease in trabecular thickness in femur at 25 to 100 mg/kg, ip administered for 4 weeks daily by microcomputed tomography; format: functional, organism-based
Mus musculus [13] = experiment: Anti-osteoporotic activity in Balb/c mouse assessed as inhibition of OVX-induced cathepsin K mRNA expression level in bone marrow at 25 to 100 mg/kg, ip administered for 4 weeks daily by qRT-PCR method; format: functional, organism-based
RAW264.7 [14] = experiment: Inhibition of NF-kappaB signaling pathway in mouse RAW264.7 cells assessed as reduction in RANKL-induced Akt phosphorylation at 10 to 40 uM after 30 mins by Western blot method; format: cell-based
RAW264.7 [15] = experiment: Inhibition of RANKL-induced osteoclast differentiation in mouse RAW264.7 cells harboring AMPKalpha1 siRNA assessed as decrease in TRAP mRNA level at 20 uM after 24 hrs by qRT-PCR method; format: functional, cell-based
[16] = target: T2, Estrogen receptor (Mus musculus) (UniProt P19785); experiment: Induction of estrogen receptor-mediated AMPKalpha1 activation in mouse RAW264.7 cells at 20 uM in presence of estrogen receptor antagonist fulvestrant; format: cell-based
T2 sequence (whole entry): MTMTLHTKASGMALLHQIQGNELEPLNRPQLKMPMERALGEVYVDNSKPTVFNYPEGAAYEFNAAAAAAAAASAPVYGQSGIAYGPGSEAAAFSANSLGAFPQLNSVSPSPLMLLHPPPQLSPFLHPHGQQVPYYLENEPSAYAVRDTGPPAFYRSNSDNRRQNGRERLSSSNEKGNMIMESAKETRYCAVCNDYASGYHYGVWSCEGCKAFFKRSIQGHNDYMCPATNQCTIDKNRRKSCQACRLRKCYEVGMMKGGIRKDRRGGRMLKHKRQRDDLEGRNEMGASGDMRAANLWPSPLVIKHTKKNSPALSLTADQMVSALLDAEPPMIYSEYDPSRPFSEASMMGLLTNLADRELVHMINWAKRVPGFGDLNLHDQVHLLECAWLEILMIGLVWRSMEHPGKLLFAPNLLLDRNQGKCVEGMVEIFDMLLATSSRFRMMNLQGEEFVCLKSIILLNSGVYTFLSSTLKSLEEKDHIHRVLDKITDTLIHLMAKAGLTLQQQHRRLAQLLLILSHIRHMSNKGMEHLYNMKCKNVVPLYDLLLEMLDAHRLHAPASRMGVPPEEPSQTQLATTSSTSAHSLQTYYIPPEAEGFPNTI

[17] = target: MAP kinase p38 (Mus musculus) (UniProt P47811+O08911+Q9WUI1+Q9Z1B7); experiment: Inhibition of p38 MAPK signaling pathway in mouse RAW264.7 cells assessed as reduction in RANKL-induced p38 phosphorylation at 10 to 40 uM after 30 mins by Western blot method; format: cell-based
RAW264.7 [18] = experiment: Inhibition of NF-kappaB signaling pathway in mouse RAW264.7 cells assessed as reduction in RANKL-induced IKKbeta phosphorylation at 10 to 40 uM after 30 mins by Western blot method; format: cell-based
RAW264.7 [19] = experiment: Inhibition of RANKL-induced osteoclast differentiation in mouse RAW264.7 cells assessed as decrease in NFATc1 mRNA level at 20 uM after 24 hrs in presence of ERalpha antagonist MPP by qRT-PCR method; format: functional, cell-based
Mus musculus [20] = experiment: Anti-osteoporotic activity in ip dosed OVX-induced bone loss in femur of Balb/c mouse administered for 4 weeks daily by microcomputed tomography; format: functional, organism-based

`COc1cc(C2Oc3c(OC)cc(/C=C/CO)cc3C2CO)ccc1O` (stereo not given) was tested, and the inhibition (RAW264.7 [1]) was “Active”, the inhibition (RAW264.7 [2]) was “Active” and the inhibition (Mus musculus [3]) was “Active”. For the same compound, the inhibition (RAW264.7 [4]) was “inactive”, the inhibition (RAW264.7 [5]) was “Dose-dependent effect” and the Activity (Mus musculus [6]) was “Active”. For the same compound, the inhibition (RAW264.7 [7]) was “inactive”, the inhibition (RAW264.7 [8]) was “inactive” and the inhibition (RAW264.7 [9]) was “Active”. The inhibition (Mus musculus [10]) was “Active”, the Activity [11] was “Active” and the inhibition (Mus musculus [12]) was “Active”. The inhibition (Mus musculus [13]) was “Active”, the inhibition (RAW264.7 [14]) was “Active” and the inhibition (RAW264.7 [15]) was “inactive”. The Activity [16] was “inactive”, the inhibition [17] was “Active” and the inhibition (RAW264.7 [18]) was “Active”. For the same compound, the inhibition (RAW264.7 [19]) was “inactive” and the Activity (Mus musculus [20]) was “Dose-dependent effect”.
